According to patent publication US10774068B2, “Composition and methods for inhibiting mammalian sterile 20-like kinase 1” (The Scripps Research Institute, priority 2015, dated 2020):
Read-outs that look alike come from different tables or passages of the source.

Assays:
MST1 [1] = target: T1, MST1 (Homo sapiens (Human), UniProt Q13043); assay: MST1 biochemical LanthaScreen Eu Kinase Binding Assay
Description: (§1) MST1 and MST2 biochemical LanthaScreen Eu Kinase Binding Assay was based on the binding and displacement of kinase tracer to the kinase of interest. Compounds in 1000×DMSO stock solution was dispensed using automated dispensing system (Labcyte) to 384 well Corning Microplate at 15 nL, 5 uL of Kinase buffer A was added to each well. Plates were shaken and incubated for 1 min to ensure well dissolution of compounds.

MST2 = MST2 (Homo sapiens (Human), UniProt Q13188); assay: MST2 biochemical LanthaScreen Eu Kinase Binding Assay
Description: as §1

human islets [2] = assay: High glucose/palmitate induced apoptotic activity in human islets; set-up: MST1 phosphorylation (pMST1): dose or concentration left out as unconfirmed; settings: HG/Pal, FIG. 8
Description: Freshly isolated human islets from a single donor were exposed to high glucose and palmitate (HG/Pal) to induce apoptosis.

human islets [3] = assay: Cytokine (IL-1β and IFN-γ) induced apoptotic activity in human islets; format: cell-based; settings: FIG. 9
MST1 [4] = target: T1, MST1; assay: MST1 kinase activity; format: biochemical
T1D model mice = T1D model mice treated with streptozotocin (STZ); format: in vivo
Beta cell = Beta cell apoptosis with increasing concentrations of neratinib (FIG. 3); format: cell-based
[5] = read-out: Kinase Binding assay-MST1 IC50
[6] = read-out: Kinase Binding assay-MST2 IC50

Sequence of MST2 (Q13188 whole entry): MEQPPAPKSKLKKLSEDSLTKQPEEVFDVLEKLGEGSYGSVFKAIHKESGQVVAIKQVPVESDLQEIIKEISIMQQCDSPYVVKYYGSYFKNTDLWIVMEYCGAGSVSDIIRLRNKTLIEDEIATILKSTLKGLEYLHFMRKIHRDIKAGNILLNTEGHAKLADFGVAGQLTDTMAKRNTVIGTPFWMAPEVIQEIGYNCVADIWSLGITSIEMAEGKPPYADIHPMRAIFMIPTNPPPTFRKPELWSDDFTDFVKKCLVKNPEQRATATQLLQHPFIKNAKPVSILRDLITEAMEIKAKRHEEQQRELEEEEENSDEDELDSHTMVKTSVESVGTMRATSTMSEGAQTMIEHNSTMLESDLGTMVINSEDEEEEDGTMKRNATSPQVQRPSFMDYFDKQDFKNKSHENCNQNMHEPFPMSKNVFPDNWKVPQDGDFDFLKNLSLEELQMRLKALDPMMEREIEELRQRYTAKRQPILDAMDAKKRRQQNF
T1 sequence (Q13043 whole entry): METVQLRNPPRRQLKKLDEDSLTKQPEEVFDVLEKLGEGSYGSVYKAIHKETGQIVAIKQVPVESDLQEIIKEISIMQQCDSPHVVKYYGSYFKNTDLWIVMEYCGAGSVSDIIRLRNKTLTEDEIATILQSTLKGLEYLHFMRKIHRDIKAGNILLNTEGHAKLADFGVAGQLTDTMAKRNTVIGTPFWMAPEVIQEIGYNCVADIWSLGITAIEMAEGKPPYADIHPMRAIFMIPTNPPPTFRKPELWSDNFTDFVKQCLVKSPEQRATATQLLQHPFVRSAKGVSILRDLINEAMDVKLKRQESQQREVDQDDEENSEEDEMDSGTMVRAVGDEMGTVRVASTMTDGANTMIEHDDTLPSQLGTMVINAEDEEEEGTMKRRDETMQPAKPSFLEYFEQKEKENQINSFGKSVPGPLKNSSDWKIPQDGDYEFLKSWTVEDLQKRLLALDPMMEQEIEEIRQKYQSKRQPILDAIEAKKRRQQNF

IC50 (MST2; [6]) [nM]	SMILES	IC50 (MST1 [1]; [5]) [nM]	IC50 (MST2) [nM]	other results
< 100	CCOc1cc2ncc(C#N)c(Nc3ccc(OCc4ncccc4C)c(Cl)c3)c2cc1NC(=O)/C=C/CN(C)C [Example 90, (E)-N-(4-(3-chloro-4-((3-methylpyridin-2-yl)methoxy)phenylamino)-3-cyano-7-ethoxyquinolin-6-yl)-4-(dimethylamino)but-2-enamide]	< 100	–	–
< 100	CCOc1cc2ncc(C#N)c(Nc3ccc(OCc4ncccc4C)c(OC)c3)c2cc1NC(=O)/C=C/CN(C)C [Example 92]	< 100	–	–
< 100	CCOc1cc2ncc(C#N)c(Nc3ccc(OCc4ncccc4C)cc3C)c2cc1NC(=O)/C=C/CN(C)C [Example 93]	< 100	–	–
< 100	CCOc1cc2ncc(C#N)c(Nc3cc(C)c(OCc4ncccc4C)cc3C)c2cc1NC(=O)/C=C/CN(C)C [Example 94]	< 100	–	–
–	CCOc1cc2ncc(C#N)c(Nc3ccc(OCc4ccccn4)c(Cl)c3)c2cc1NC(=O)CCCN1CCCC1 [Example 95, N-(4-(3-chloro-4-(pyridin-2-ylmethoxy)phenylamino)-3-cyano-7-ethoxyquinolin-6-yl)-4-(pyrrolidin-1-yl)butanamide]	< 100	100 to 1000	–
–	CCOc1cc2ncc(C#N)c(Nc3ccc(OCc4ccccn4)c(Cl)c3)c2cc1NC(=O)CCCN1CCCCC1 [Example 97]	< 100	100 to 1000	–
–	CCOc1cc2ncc(C#N)c(Nc3ccc(OCc4ccccn4)c(Cl)c3)c2cc1NC(=O)CCCN1CCOCC1 [Example 99]	100 to 1000	100 to 1000	–
–	CCOc1cc2ncc(C#N)c(Nc3ccc(OCc4ccccn4)c(Cl)c3)c2cc1NC(=O)CCCOC [Example 102]	100 to 1000	100 to 1000	–
100 to 1000	CCOc1cc2ncc(C#N)c(Nc3ccc(CCc4ccccn4)c(Cl)c3)c2cc1NC(=O)CCCN(C)C [Example 107, N-(4-(3-chloro-4-(2-(pyridin-2-yl)ethyl)phenylamino)-3-cyano-7-ethoxyquinolin-6-yl)-4-(dimethylamino)butanamide]	100 to 1000	–	–
–	CCOc1cc2ncc(C#N)c(Nc3ccc(NC(=O)c4ncccc4C)c(Cl)c3)c2cc1NC(=O)CCCN(C)C [Example 108, N-(2-chloro-4-(3-cyano-6-(4-(dimethylamino)butanamido)-7-ethoxyquinolin-4-ylamino)phenyl)-3-methylpicolinamide]	–	100 to 1000	IC50 (MST1 [1]): 100 to 1000 nM
< 100	CCOc1cc2ncc(C#N)c(Nc3cccc(Cl)c3)c2cc1NC(C)=O [Example 127]	< 100	–	–
–	CCOc1cc2ncc(C#N)c(Nc3ccc(O)cc3C)c2cc1NC(=O)CCCN(C)C [Example 139]	100 to 1000	1000 to 10000	–
–	CCOc1cc2ncc(C#N)c(Nc3ccc(OCc4ccccn4)c(Cl)c3)c2cc1NC [Example 140, 4-(3-chloro-4-(pyridin-2-ylmethoxy)phenylamino)-7-ethoxy-6-(methylamino)quinoline-3-carbonitrile]	–	1000 to 10000	IC50 (MST1 [1]): 100 to 1000 nM
–	Cc1cccnc1COc1ccc(Nc2c(C#N)cnc3ccc(NC(=O)CCCN(C)C)cc23)c(Cl)c1 [Example 144, N-(4-(2-chloro-4-((3-methylpyridin-2-yl)methoxy)phenylamino)-3-cyanoquinolin-6-yl)-4-(dimethylamino)butanamide]	–	100 to 1000	IC50 (MST1 [1]): 100 to 1000 nM
–	CCOc1cc2ncc(C=O)c(Nc3ccc(OCc4ncccc4C)cc3Cl)c2cc1NC(=O)CCCN(C)C [Example 145, N-(4-(2-chloro-4-((3-methylpyridin-2-yl)methoxy)phenylamino)-7-ethoxy-3-formylquinolin-6-yl)-4-(dimethylamino)butanamide]	–	1000 to 10000	IC50 (MST1 [1]): 1000 to 10000 nM
–	Cc1cccnc1COc1ccc(Nc2ccnc3ccc(NC(=O)CCCN(C)C)cc23)c(Cl)c1 [Example 147, N-(4-(2-chloro-4-((3-methylpyridin-2-yl)methoxy)phenylamino)quinolin-6-yl)-4-(dimethylamino)butanamide]	1000 to 10000	1000 to 10000	–
–	CCOc1cc2ncc(C#N)c(Nc3ccc(OCc4ccccn4)c(Cl)c3)c2cc1NC(=O)/C=C/CN(C)C [neratinib]	–	–	induction of cleaved caspase 3 (Cl Casp3) (human islets [2]; 25 M neratinib (so in the source)): inhibited; MST1 phosphorylation (pMST1) (human islets [2]): inhibited; Caspase 3 cleavage (human islets [3]; 10 μM neratinib): inhibited; MST1 phosphorylation (human islets [3]; 10 μM neratinib): inhibited; Caspase 3 cleavage (human islets [3]; 25 μM neratinib): inhibited; MST1 phosphorylation (human islets [3]; 25 μM neratinib): inhibited; MST1 kinase activity (MST1 [4]): inhibitor; hyperglycemia (T1D model mice; T1D model mice treated with STZ, FIG. 4): attenuated; responses to acute glucose challenge (T1D model mice; T1D model mice, FIG. 5): improved; blood glucose (T1D model mice; T1D model mice, FIG. 6): reduced; serum insulin (T1D model mice; T1D model mice, FIG. 7): increased; Beta cell apoptosis (Beta cell): decrease
